Like-named read-outs stand apart in the source and are kept apart here.

For one assay, the system named is S. schleiferi. In words: Growth inhibition of Staphylococcus species assay. The settings on record: read-out: Bacterial IC50 (Mean ± SD) S.s. It is filed as cell-based.
Assay [1] deals with S. pseudintermedius. Type of assay: cell-based.
In assay [2] the target is recombinant DXR enzyme. Put plainly: DXR enzyme activity assay. The settings on record: read-out: S. schleiferi IC50 (mean ± SD). Type of assay: biochemical.
For assay [3], the system named is S. chromogenes. In words: Growth inhibition of Staphylococcus species assay. The settings on record: read-out: Bacterial IC50 (Mean ± SD) S.c. It is filed as cell-based.
The subject of assay [4] is S. chromogenes. Type of assay: cell-based.
The next assay deals with S. schleferi. Type of assay: cell-based, S. schleiferi.
Assay [5] has as its system S. pseudintermedius. In words: Growth inhibition of Staphylococcus species assay. The settings on record: read-out: Bacterial IC50 (Mean ± SD) S.p. It is filed as cell-based.
Another assay concerns S. aureus. Type of assay: cell-based. The settings on record: read-out: Bacterial IC50 (Mean ± SD) S.a.
A further assay relates to P. falciparum. The settings on record: read-out: inhibition of P. falciparum growth IC50; cited from earlier work.
Assay [6] has as its target recombinant DXR enzyme. Put plainly: DXR enzyme activity assay. The settings on record: recombinant S. chromogenes DXR, n=3; read-out: S. chromogenes IC50 (mean ± SD). Type of assay: biochemical.
Where [7] appears, read: S. schleiferi growth, LB media, 20 h, OD600.

For the molecule `CC(=O)N(O)C/C=C/P(=O)(OCOC(=O)c1ccccc1)OCOC(=O)c1ccccc1` [KMH-102], in the assay with S. schleiferi (setting [7]), the IC50 came out at 210 ± 50 nM.

Consider `O=CN(O)CCCP(=O)(O)O` [fosmidomycin], for which, in the assay with S. pseudintermedius [1], the “bacteriostatic or bactericidal in S. pseudintermedius” value was “bacteriostatic”. Besides, the IC50 is 670 ± 60 nM on recombinant DXR enzyme [2]; 780 ± 130 nM with S. schleiferi; 310 ± 10 nM in the assay with S. chromogenes [3]; 310 ± 40 nM in the assay on S. pseudintermedius [5]; over 100000 nM in the assay with S. aureus; 90 to 350 nM in the assay with P. falciparum. In addition, the “bacteriostatic or bactericidal in S. chromogenes” value in the assay with S. chromogenes [4] is given as “bacteriostatic”. The “bacteriostatic or bactericidal in S. schleferi” value in the assay on S. schleferi is on record as “bacteriostatic”.

As for `CC(C)(C)C(=O)OCOP(=O)(/C=C/CN(O)C(=O)CCCc1ccccc1)OCOC(=O)C(C)(C)C` [JXW-168], in the assay on S. schleiferi (setting [7]), the IC50 was 8700 nM.

Take `CC(C)(C)C(=O)OCOP(=O)(/C=C/CN(O)C(=O)c1ccccc1)OCOC(=O)C(C)(C)C` [JXW-189]: the IC50 in the assay on S. schleiferi (setting [7]) worked out at 1300 nM.

With `COCOCOCOP(=O)(/C=C/CN(O)C=O)OCOCOCOC` [JXW-573], the IC50 at recombinant DXR enzyme [2] (recombinant S. schleiferi DXR, n=3) is 12600 ± 1880 nM; with S. schleiferi (setting [7]) it was 30 nM; with S. chromogenes [3] (S. chromogenes growth, LB media, 20 h, OD600), 40 nM; at recombinant DXR enzyme [6], 15200 ± 2360 nM; in the assay on S. pseudintermedius [5] (S. pseudintermedius growth, LB media, 20 h, OD600) it was 210 ± 40 nM.
